Measured values as given in US7709521B2, “Substituted indole derivatives for pharmaceutical compositions for treating respiratory diseases” (AstraZeneca AB, priority 2003, dated 2010).

How the values were obtained:
rhCRTh2 = molecular target: T1, rhCRTh2 (Homo sapiens, UniProt Q9Y5Y4); test: Ligand binding assay ([3H]PGD2 displacement, SPA, HEK cell membranes); details: [3H]PGD2 binding to membranes of HEK cells expressing rhCRTh2/Gα16, SPA beads, room temperature, 2 hours
T1 construct: expressed in transfected cells; host or cells: HEK cells (membrane preparation)
T1 sequence (Q9Y5Y4 1-395): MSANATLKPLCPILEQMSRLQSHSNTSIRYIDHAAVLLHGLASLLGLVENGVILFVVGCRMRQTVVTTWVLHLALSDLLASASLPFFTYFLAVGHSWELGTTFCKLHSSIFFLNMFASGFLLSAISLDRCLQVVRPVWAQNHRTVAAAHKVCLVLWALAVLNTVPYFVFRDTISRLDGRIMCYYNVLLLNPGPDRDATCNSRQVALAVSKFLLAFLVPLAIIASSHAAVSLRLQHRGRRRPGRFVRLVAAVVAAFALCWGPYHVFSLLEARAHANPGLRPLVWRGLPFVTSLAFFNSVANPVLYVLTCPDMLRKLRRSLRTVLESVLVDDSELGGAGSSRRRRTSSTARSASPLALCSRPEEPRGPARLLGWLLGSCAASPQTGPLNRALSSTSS
Description: [^3H]PGD2 was purchased from Perkin Elmer Life Sciences with a specific activity of 100-210 Ci/mmol.
HEK cells expressing rhCRTh2/Gα16 were routinely maintained in DMEM containing 10% Foetal Bovine Serum (HyClone), 1 mg/ml geneticin, 2 mM L-glutamine and 1% non-essential amino acids. For the preparation of membranes, the adherent transfected HEK cells were grown to confluence in two layer tissue culture factories (Fisher, catalogue number TKT-170-070E). Maximal levels of receptor expression were induced by addition of 500 mM sodium butyrate for the last 18 hours of culture. The adherent cells were washed once with phosphate buffered saline (PBS, 50 ml per cell factory) and detached by the addition of 50 ml per cell factory of ice-cold membrane homogenisation buffer [20 mM HEPES (pH 7.4), 0.1 mM dithiothreitol, 1 mM EDTA, 0.1 mM phenyl methyl sulphonyl fluoride and 100 μg/ml bacitracin]. Cells were pelleted by centrifugation at 220×g for 10 minutes at 4° C., re-suspended in half the original volume of fresh membrane homogenisation buffer and disrupted using a Polytron homogeniser for 2×20 second bursts keeping the tube in ice at all times. […] The final pellet was re-suspended in 4 ml of membrane homogenisation buffer per cell factory used and the protein content determined. […]
All assays were performed in Corning clear bottomed, white 96-well NBS plates (Fisher). […] (The optimum coating concentrations were determined for each batch of membranes) The beads were pelleted by centrifugation (800×g for 7 minutes at 4° C.), washed once with assay buffer (50 mM HEPES pH 7.4 containing 5 mM magnesium chloride) and finally re-suspended in assay buffer at a bead concentration of 10 mg/ml.
Compounds and DK-PGD2 were dissolved in DMSO and diluted in the same solvent to 100× the required final concentration. […] The assay plate was incubated at room temperature for 2 hours and counted on a Wallac Microbeta liquid scintillation counter (1 minute per well).

| Structure (SMILES) | melting point | IC50 (rhCRTh2) |
| --- | --- | --- |
| Cc1c(Oc2ccc(S(C)(=O)=O)cc2)c2cc(F)ccc2n1CC(=O)O [Example 2, 5-Fluoro-2-methyl-3-[4-(methylsulfonyl)phenoxy]-1H-indole-1-acetic acid] | 204 to 207 °C | – |
| Cc1c(Oc2ccc(Cl)cc2)c2cc(S(C)(=O)=O)ccc2n1CC(=O)O [Example 5, 3-(4-chlorophenoxy)-2-methyl-5-(methylsulfonyl)-1H-indole-1-acetic acid] | – | 89.1 nM |
| Cc1c(Oc2ccc(Cl)cc2)c2cc(C(F)(F)F)ccc2n1CC(=O)O [Example 6, 3-(4-chlorophenoxy)-2-methyl-5-(trifluoromethyl)-1H-indole-1-acetic acid] | – | 11.2 nM |
| Cc1c(Oc2ccc(C(=O)O)cc2)c2cc(F)ccc2n1CC(=O)O [Example 9, 3-(4-Carboxyphenoxy)-5-fluoro-2-methyl-1H-indole-1-acetic acid] | – | 178 nM |
| CNC(=O)c1ccc(Oc2c(C)n(CC(=O)O)c3ccc(F)cc23)cc1 [Example 10, 5-Fluoro-2-methyl-3-[4-[(methylamino)carbonyl]phenoxy]-1H-indole-1-acetic acid] | 217 to 218 °C | – |
| CCNC(=O)c1ccc(Oc2c(C)n(CC(=O)O)c3ccc(F)cc23)cc1 [Example 11, 3-[4-[(Ethylamino)carbonyl]phenoxy]-5-fluoro-2-methyl-1H-indole-1-acetic acid] | 220 to 222 °C | – |
| Cc1c(Oc2ccc(C(=O)NC(C)C)cc2)c2cc(F)ccc2n1CC(=O)O [Example 12, 5-Fluoro-2-methyl-3-[4-[[(1-methylethyl)amino]carbonyl]phenoxy]-1H-indole-1-acetic acid] | 218 to 219 °C | – |

Further lines, results first:

| melting point | IC50 (rhCRTh2) | Structure (SMILES) |
| --- | --- | --- |
| 215 to 216 °C | – | Cc1c(Oc2ccc(C(=O)O)cc2)c2cc(Cl)ccc2n1CC(=O)O [Example 13, 3-(4-Carboxyphenoxy)-5-chloro-2-methyl-1H-indole-1-acetic acid] |
| 195 to 196 °C | – | COC(=O)c1ccc(Oc2c(C)n(CC(=O)O)c3ccc(F)cc23)cc1 [Example 14, 5-Fluoro-3-[4-(methoxycarbonyl)phenoxy]-2-methyl-1H-indole-1-acetic acid] |
| 196 to 197 °C | – | COC(=O)c1ccc(Oc2c(C)n(CC(=O)O)c3ccc(Cl)cc23)cc1 [Example 15, 5-Chloro-3-[4-(methoxycarbonyl)phenoxy]-2-methyl-1H-indole-1-acetic acid] |
| 225 °C (dec.) | – | CNC(=O)c1ccc(Oc2c(C)n(CC(=O)O)c3ccc(Cl)cc23)cc1 [Example 16, 5-Chloro-2-methyl-3-[4-[(methylamino)carbonyl]phenoxy]-1H-indole-1-acetic acid] |
| 220 °C (dec.) | – | CCNC(=O)c1ccc(Oc2c(C)n(CC(=O)O)c3ccc(Cl)cc23)cc1 [Example 17, 5-Chloro-3-[4-[(ethylamino)carbonyl]phenoxy]-2-methyl-1H-indole-1-acetic acid] |
| < 275 °C | – | Cc1c(Oc2ccc(C(=O)NC(C)C)cc2)c2cc(Cl)ccc2n1CC(=O)[O-].[Na+] [Example 18, Sodium 5-Chloro-2-methyl-3-[4-[[(1-methylethyl)amino]carbonyl]phenoxy]-1H-indole-1-acetate] |
